{
  "source": "patent US20130330749A1",
  "about": "“METHOD AND APPARATUS FOR DETECTING LIVER DISEASE, AND METHOD FOR ASSAYING PHARMACEUTICAL PREPARATION” (priority 2008, published 2013)",
  "key": {"[1]": {"target": "T1, γ-glutamyl cysteine synthase (GCS) (Mus musculus, UniProt P97494)", "T1 construct": "Liver specimens (about 300 mg) were excised from the mice 1 hour after administration; from tissue; host or cells: mouse liver (in vivo, intraperitoneal dosing); serum also measured", "T1 sequence (P97494 1-637)": "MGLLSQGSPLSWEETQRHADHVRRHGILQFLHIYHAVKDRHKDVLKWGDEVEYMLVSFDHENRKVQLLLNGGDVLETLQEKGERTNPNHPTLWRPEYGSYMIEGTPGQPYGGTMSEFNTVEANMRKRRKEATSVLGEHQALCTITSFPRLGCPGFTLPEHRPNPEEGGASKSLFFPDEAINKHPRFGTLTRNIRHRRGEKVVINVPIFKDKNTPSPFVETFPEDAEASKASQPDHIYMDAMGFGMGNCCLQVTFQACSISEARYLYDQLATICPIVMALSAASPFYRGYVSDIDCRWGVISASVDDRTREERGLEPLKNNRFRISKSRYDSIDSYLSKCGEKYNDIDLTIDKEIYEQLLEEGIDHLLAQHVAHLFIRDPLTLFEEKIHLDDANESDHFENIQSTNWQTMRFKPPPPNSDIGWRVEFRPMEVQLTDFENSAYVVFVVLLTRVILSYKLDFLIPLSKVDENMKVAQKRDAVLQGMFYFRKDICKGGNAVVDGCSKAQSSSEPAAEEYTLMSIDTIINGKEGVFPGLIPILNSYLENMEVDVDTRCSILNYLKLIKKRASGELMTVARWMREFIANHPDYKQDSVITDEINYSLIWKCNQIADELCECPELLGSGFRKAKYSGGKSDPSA", "T1 sequence (O09172 1-274 partner)": "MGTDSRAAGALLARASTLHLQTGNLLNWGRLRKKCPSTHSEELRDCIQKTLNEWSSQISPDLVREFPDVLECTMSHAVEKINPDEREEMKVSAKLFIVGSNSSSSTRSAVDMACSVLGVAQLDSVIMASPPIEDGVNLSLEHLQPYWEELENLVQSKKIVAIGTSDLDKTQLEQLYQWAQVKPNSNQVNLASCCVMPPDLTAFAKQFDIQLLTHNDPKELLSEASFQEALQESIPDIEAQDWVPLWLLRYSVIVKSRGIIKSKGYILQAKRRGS", "assay": "Administration of GCS inhibitor BSO and GCS activator DEM to mice; metabolites in liver and serum measured by CE-TOFMS", "type": "in vivo", "settings": "intraperitoneal 4 mmol/kg", "text": "The biosynthesis mechanism of γ-Glu-X peptides was elucidated using a mouse. As shown in FIG. 1(B), the following biosynthesis mechanism of γ-Glu-X peptides was found. That is, the oxidative stress condition caused by active oxygen and electrophiles causes depletion of glutathione, which is used for removing these substances, and this depletion leads to activation of γ-glutamyl cysteine synthase (GCS). Then, γ-Glu-X dipeptides and γ-Glu-X-Gly tripeptides are biosynthesized by using various amino acids as substrates (starting materials). The experimental procedures are described below.\nMale mice were fasted overnight and anesthetized by an intraperitoneal injection of pentobarbital sodium (60 mg/Kg of body weight). Then, the mice were intraperitoneally injected with BSO, which is a γ-glutamyl cysteine synthase (GCS) inhibitor, and diethylmaleate (DEM), which is an electrophile (GCS activator), both at a dose of 4 mmol/kg of body weight (888 mg of BSO, 688 mg of DEM). The mouse as a healthy subject was intraperitoneally injected with physiological saline. Liver specimens (about 300 mg) were excised from the mice 1 hour after administration (5 times each).\nThe liver specimens (about 300 mg) excised from the mice were immediately placed in 1 ml of methanol containing an internal standard substance and were homogenized to inactivate an enzyme, thereby stopping enhancement of metabolism. After 500 μl of pure water was added to the mixture, 300 μl of solution was taken out. To this solution, 200 μl of chloroform was added. After thorough stirring, the solution was further centrifuged at 15000 rpm for 15 minutes at 4° C. After allowing to stand, 300 μl of separated water-methanol phase was passed through a 5 kDa molecular weight cutoff filter for centrifugal ultrafiltration to deproteinize it. The filtrate was lyophilized and 50 μl of Milli-Q water was added thereto. The mixture was subjected to a CE-TOFMS measurement.\nThe method described below was used to confirm that the detected γ-Glu-X peptides and γ-Glu-X-Gly peptides were synthesized in a glutathione-biosynthesis pathway. […]"}, "glutathione": {"system": "glutathione", "settings": "mouse, large quantities of APAP, cited from earlier work"}},
  "data": [
    {"smiles": "CCCCS(=N)(=O)CCC(N)C(=O)O", "note": "(centres unmarked) [BSO]", "values": [
      {"measurement": "amount of glutathione in the livers", "setting": "[1]; liver 1 hour after administration, compared to the healthy (saline) mouse", "value": "decreased rapidly"},
      {"measurement": "γ-Glu-X and γ-Glu-X-Gly peptidic substances in the liver other than γ-Glu-Cys, GSH and γ-Glu-Ser-Gly", "setting": "[1]; liver 1 hour after administration, compared to the healthy subject", "value": "decreased"},
      {"measurement": "γ-Glu-2AB and ophthalmic acid (γ-Glu-2AB-Gly) in the murine serum", "setting": "[1]; serum, compared to the normal state", "value": "decreased"}
    ]},
    {"smiles": "CC(=O)Nc1ccc(O)cc1", "note": "[APAP, Acetaminophen]", "values": [
      {"measurement": "ophthalmic acid level", "setting": "glutathione; in inverse proportion to the glutathione level", "value": "increased rapidly"},
      {"measurement": "glutathione level", "setting": "glutathione", "value": "decreased"}
    ]}
  ]
}
